From the NIST ThermoML archive (doi:10.1021/je900597n)
Several values for one entry are separate records, joined by “and”; a condition that tells them apart may be missing. Equal entries are not always repeated.

Experiments:
[1] = 101 kPa, Liquid; for speed of sound: Pulse-echo method
[2] = xn = mol fraction of the nth substance listed; settings: 101 kPa, Liquid

CCCNCCC [dipropylamine]
[1]
Settings | mass density [kg/m3] | speed of sound [m/s]
288.15 K | 745.064 | 1235.1
293.15 K | 740.501 | 1213.4
298.15 K | 735.924 | 1191.9
303.15 K | 731.333 | 1170.4
308.15 K | 726.732 | 1149

COC(C)(C)C [2-methoxy-2-methylpropane] + CCCNCCC
[2], Pulse-echo method, x1 = 1
Settings | speed of sound [m/s]
288.15 K | 1086.9
293.15 K | 1063.4
298.15 K | 1040.3
303.15 K | 1017.4
308.15 K | 994.68

[2], x1 = 1
Settings | mass density [kg/m3]
288.15 K | 747.273
293.15 K | 742.072
298.15 K | 736.826
303.15 K | 731.532
308.15 K | 726.185

COC(C)(C)C [2-methoxy-2-methylpropane]
[1]
Settings | mass density [kg/m3] | speed of sound
288.15 K | 747.273 | 1086.6 m/s and 1086.9 m/s
293.15 K | 742.072 | 1063.4 m/s
298.15 K | 736.826 | 1040.3 m/s
303.15 K | 731.532 | 1017.4 m/s
308.15 K | 726.185 | 994.68 m/s

CCCN [propan-1-amine]
[1]
Settings | mass density [kg/m3] | speed of sound [m/s]
288.15 K | 725.08 | 1266.1
293.15 K | 719.859 | 1242
298.15 K | 714.586 | 1218
303.15 K | 709.269 | 1194
308.15 K | 703.911 | 1169.9

CCCN [propan-1-amine] + COC(C)(C)C
[2]
Settings | mass density, 288.15 K [kg/m3] | mass density, 293.15 K [kg/m3] | mass density, 298.15 K [kg/m3] | mass density, 303.15 K [kg/m3] | mass density, 308.15 K [kg/m3] | speed of sound, 288.15 K [m/s] | speed of sound, 293.15 K [m/s] | speed of sound, 298.15 K [m/s] | speed of sound, 303.15 K [m/s] | speed of sound, 308.15 K [m/s]
x2 = 0 | 725.08 | 719.859 | 714.586 | 709.269 | 703.911 | 1266.1 | 1242 | 1218 | 1194 | 1169.9
x2 = 0.0709 | 727.856 | 722.621 | 717.583 | 712.014 | 706.643 | 1251.4 | 1227.2 | 1203.1 | 1179.1 | 1155.3
x2 = 0.0971 | 729.03 | 723.784 | 718.729 | 713.152 | 707.762 | 1244 | 1220 | 1196 | 1172.2 | 1148.2
x2 = 0.2112 | 733 | 727.745 | 722.617 | 717.065 | 711.678 | 1214.4 | 1190.5 | 1166.5 | 1142.9 | 1119.1
x2 = 0.2915 | 734.914 | 729.567 | 724.408 | 718.869 | 713.452 | 1204.2 | 1180.3 | 1156.2 | 1132.6 | 1109
x2 = 0.3956 | 737.188 | 731.938 | 726.763 | 721.277 | 715.895 | 1174.4 | 1150.7 | 1127 | 1103.4 | 1079.8
x2 = 0.5551 | 740.109 | 734.863 | 729.642 | 724.214 | 718.801 | 1146 | 1122.5 | 1098.9 | 1075.4 | 1052.2
x2 = 0.7171 | 742.564 | 737.327 | 732.071 | 726.691 | 721.338 | 1120.6 | 1097.1 | 1073.7 | 1050.5 | 1027.3
x2 = 0.7747 | 743.456 | 738.22 | 732.941 | 727.578 | 722.269 | 1111.6 | 1088 | 1064.5 | 1041 | 1017.8
x2 = 0.8604 | 744.503 | 739.27 | 733.994 | 728.673 | 723.302 | 1101.2 | 1077.8 | 1054.2 | 1030.9 | 1007.5
x2 = 0.9268 | 745.6 | 740.382 | 735.117 | 729.806 | 724.452 | 1094.2 | 1070.7 | 1047.5 | 1024.2 | 1001.1

COC(C)(C)C [2-methoxy-2-methylpropane] + CCCN
[2], x1 = 1
Settings | mass density [kg/m3] | speed of sound [m/s]
288.15 K | 747.273 | 1086.6
293.15 K | 742.072 | 1063.4
298.15 K | 736.826 | 1040.3
303.15 K | 731.532 | 1017.4
308.15 K | 726.185 | 994.68
